# Experiments:
# Experiment in all cases: relative viability (nuclei count vs DMSO), 5 days (fraction); higher = more cells survive
# [1] = compound: O[C@@H](COc1cccc2ncccc12)CN1CCN([C@@H]2c3ccccc3[C@@H]3[C@H](c4ccccc42)C3(F)F)CC1 [Zosuquidar] + O=C(c1cc(Cc2n[nH]c(=O)c3ccccc23)ccc1F)N1CCN(C(=O)C2CC2)CC1 [Olaparib] (partner 8 µM)
# How it was run: (§1)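 After 5 days of treatment, lung cancer cells in 1536-well plates were fixed and stained in a single step (final 0.05% Triton X-100, 1% formaldehyde, 1 ug/ml Hoechst) and their nuclei counted on 4× images. Treatment had been applied by pin tool the day after seeding as one drug alone or as a fixed anchor-drug dose with five library-drug doses (not always all listed) in √10 steps. Relative viability is the nuclei count of treated wells divided by that of vehicle wells, and values are medians of duplicate plates.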
# [2] = compound: C1=CC(=CC=C1NC(=S)NNC2=C(C=C(C=C2[N+](=O)[O-])C(F)(F)F)[N+](=O)[O-])F [Kobe2602] + Cc1nc(Nc2ncc(C(=O)Nc3c(C)cccc3Cl)s2)cc(N2CCN(CCO)CC2)n1 [Dasatinib] (partner 0.075 µM)
# How it was run: as §1
# [3] = compound: C1=CC(=CC=C1NC(=S)NNC2=C(C=C(C=C2[N+](=O)[O-])C(F)(F)F)[N+](=O)[O-])F [Kobe2602] + NC(=O)Nc1cc(-c2cccc(F)c2)sc1C(=O)N[C@H]1CCCNC1 [AZD7762] (partner 0.2 µM)
# How it was run: as §1
# [4] = compound: COc1cc2nccc(Oc3ccc(NC(=O)C4(C(=O)Nc5ccc(F)cc5)CC4)cc3)c2cc1OC [Cabozantinib] + NC(=O)Nc1cc(-c2cccc(F)c2)sc1C(=O)N[C@H]1CCCNC1 [AZD7762] (partner 0.2 µM)
# How it was run: as §1
Cell Line,relative viability ([1]; first compound 0.01 µM),relative viability ([1]; first compound 0.03162 µM),relative viability ([1]; first compound 0.1 µM),relative viability ([1]; first compound 0.3162 µM),relative viability ([1]; first compound 1 µM),relative viability ([2]; first compound 0.2 µM),relative viability ([2]; first compound 0.6325 µM),relative viability ([2]; first compound 2 µM),relative viability ([2]; first compound 6.325 µM),relative viability ([2]; first compound 20 µM),relative viability ([3]; first compound 0.2 µM),relative viability ([3]; first compound 0.6325 µM),relative viability ([3]; first compound 2 µM),relative viability ([3]; first compound 6.325 µM),relative viability ([3]; first compound 20 µM),relative viability ([4]; first compound 0.02 µM),relative viability ([4]; first compound 0.06325 µM),relative viability ([4]; first compound 0.2 µM),relative viability ([4]; first compound 0.6325 µM),relative viability ([4]; first compound 2 µM)
NCI-H520,0.395,0.312,0.341,0.29,0.335,0.205,0.233,0.197,0.222,0.202,,,,,,,,,,
NCI-H1915,0.267,0.261,0.268,0.265,0.291,0.336,0.338,0.289,0.318,0.341,0.711,0.729,0.7,0.71,0.682,0.769,0.721,0.725,0.804,0.678
NCI-H1299,0.982,0.976,0.993,0.963,1.01,,,,,,,,,,,,,,,
HCC-827,0.688,0.567,0.518,0.65,0.622,0.289,0.284,0.43,0.388,0.404,0.217,0.223,0.349,0.242,0.339,0.189,0.268,,0.225,0.189
EMC-BAC-2,0.467,0.487,0.529,0.535,0.482,0.33,0.322,0.338,0.367,0.376,1.14,1.16,1.06,1.21,1.16,0.95,1.26,1.11,1.13,1.13
NCI-H650,0.393,0.393,0.394,0.454,0.369,0.429,0.564,0.501,0.517,0.5,0.843,1.14,0.924,0.971,1.06,0.959,1.24,0.938,1.04,0.982
NCI-H1792,0.334,0.424,0.339,0.422,0.396,0.691,0.949,0.894,0.85,0.787,0.553,0.792,0.593,0.578,0.769,,1.05,0.684,0.506,0.335
NCI-H2009,0.631,0.611,0.684,0.639,0.65,0.282,0.368,0.332,0.336,0.312,,,,,,,,,,
NCI-H2405,0.903,0.758,0.756,0.95,0.829,0.24,0.211,0.215,0.228,0.228,0.767,0.912,0.664,0.798,0.857,0.687,0.918,0.769,0.68,0.655
SW 900,0.853,0.93,,1.06,0.838,0.463,0.836,0.586,0.537,0.898,0.7,0.551,0.496,0.657,0.595,0.604,0.761,0.559,0.441,0.448
NCI-H1563,,,,,,0.473,0.473,0.466,0.467,0.527,,,,,,,,,,
NCI-H1944,0.404,0.407,0.384,0.516,0.385,0.255,0.223,0.233,0.213,0.245,0.561,0.553,0.704,0.496,0.585,0.492,0.552,0.598,0.55,0.69
NCI-H322M,0.774,0.898,0.665,0.698,0.796,0.254,0.25,0.245,0.241,0.297,0.604,0.52,0.474,0.72,0.587,0.574,0.716,0.543,0.725,0.612
NCI-H1650,0.95,0.812,0.725,0.714,0.742,0.285,0.396,0.285,0.255,0.227,,,,,,,,,,
NCI-H661,0.718,0.731,0.737,0.727,0.759,0.799,1.09,0.904,0.847,0.758,,,,,,,,,,
Calu-6,0.583,0.677,0.714,0.605,0.594,,,,,,,,,,,,,,,
EBC-1,0.692,0.797,0.638,0.827,0.705,,,,,,,,,,,,,,,
COR-L23,0.363,0.38,0.333,0.355,0.37,0.507,0.561,0.482,0.55,0.555,,,,,,,,,,
NCI-H1703,0.413,0.421,0.394,0.858,0.451,,,,,,,0.13,0.111,,0.173,0.118,0.129,0.133,0.136,0.139
HCC-44,1.01,1.02,1.02,0.961,0.934,,,,,,0.951,0.952,1.04,0.982,0.892,1.04,1.03,1.08,1.07,1.12
SW 1573,0.427,0.357,0.544,0.471,0.446,0.473,0.655,0.58,0.483,0.243,,,,,,,,,,
SK-LU-1,0.517,0.535,0.485,0.531,0.435,0.18,0.184,0.177,0.17,0.187,,,,,,,,,,
NCI-H1648,0.5,0.908,0.614,0.799,0.877,,,,,,0.741,0.656,0.586,0.624,0.66,0.792,0.737,,0.721,0.73
A549,0.301,0.379,0.306,0.371,0.35,,,,,,,,,,,,,,,

# Reference: the supplement of paper PMC10307832
